Results from the supplement of paper PMC11208160.

Experiment: recombinant barcode read abundance after kanamycin selection (control-corrected) (log10(CPM+1)); higher = more efficient recombination; sequences stand for … in AGTGCAGAGAAAATCGGCCAGTTTTCTCTGCCTGCAGTCCGCATGCCGT…AGATTTATGCAGCGGACTGCCTTTCTCCCAAAGTGATAAACCGGACAGTATCATGGACCGGTTTTCCCGGTAATCCGTATTTGCAAGGTTGGTTTCACT; site = the 11-nt target
Summary of the method: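 Recombination efficiency comes from barcode counts at recombinant junctions, converted to counts per million, averaged and corrected against the control. Values appear as log10(CPM+1). They were obtained from a pooled E. coli screen in which each oligo paired a target with an IS621 bridge RNA target-binding loop, and cells were plated in duplicate on chloramphenicol/ampicillin LB agar or on chloramphenicol/ampicillin/kanamycin with 0.1 mM IPTG.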
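Note: IS621 recombinase and bridge RNA in Escherichia coli cells.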

Question: For “ATCCAGCCTTGGGTTCTAACCTGTTGCCT (site ATCCAGCCTAG)”, which “recombinant barcode read abundance (log10)” value is on record?
Answer: 1.7

Question: For “ATCCAGCCTTGGGTTCTAACCTGTTGCCT (site ATCCATCCTAG)”, which “recombinant barcode read abundance (log10)” value is on record?
Answer: 0.0724

Question: With “ATCCCACCTTGGGTTCTAACCTGTTGCGG (site ATACTACCTCC)” as the sequence, how does the “recombinant barcode read abundance (log10)” value read?
Answer: 0.0321

Question: With “ATCCCACCTTGGGTTCTAACCTGTTGCGG (site ATCCCACCTCC)” as the sequence, how does the “recombinant barcode read abundance (log10)” value read?
Answer: 1.89

Question: For “ATCCTAGCTTGGGTTCTAACCTGTTGCCG (site ATCCTAGCTCG)”, which “recombinant barcode read abundance (log10)” value is on record?
Answer: 1.58

Question: For “ATCCTAGCTTGGGTTCTAACCTGTTGCCG (site TTCCTAGCTTG)”, which “recombinant barcode read abundance (log10)” value is on record?
Answer: 0.299

Question: For “ATCGCTCCTTGGGTTCTAACCTGTTGCCT (site AACGCTCCTAG)”, which “recombinant barcode read abundance (log10)” value is on record?
Answer: 0.128

Question: For “ATCGCTCCTTGGGTTCTAACCTGTTGCCT (site ACCGCTCCTAG)”, which “recombinant barcode read abundance (log10)” value is on record?
Answer: 0.115

Question: Which “recombinant barcode read abundance (log10)” value does the source give for “ATCGCTCCTTGGGTTCTAACCTGTTGCCT (site AGCGCTCCTAG)” here?
Answer: 0.122

Question: Which “recombinant barcode read abundance (log10)” value does the source give for “ATCGCTCCTTGGGTTCTAACCTGTTGCCT (site ATCGCTCCTAG)” here?
Answer: 2.12

Question: Which “recombinant barcode read abundance (log10)” value does the source give for “ATCGGATCTTGGGTTCTAACCTGTTGCCT (site ATCGGAACTAG)” here?
Answer: 0.195

Question: For “ATCGGATCTTGGGTTCTAACCTGTTGCCT (site ATCGGACCTAG)”, which “recombinant barcode read abundance (log10)” value is on record?
Answer: 0.0656

Question: For “ATCGGATCTTGGGTTCTAACCTGTTGCCT (site ATCGGAGCTAG)”, which “recombinant barcode read abundance (log10)” value is on record?
Answer: 0.232

Question: Which “recombinant barcode read abundance (log10)” value does the source give for “ATCGGATCTTGGGTTCTAACCTGTTGCCT (site ATCGGATCTAG)” here?
Answer: 0.678

Question: Which “recombinant barcode read abundance (log10)” value does the source give for “ATCGGCCCTTGGGTTCTAACCTGTTGCTG (site ATCGGCCCTCA)” here?
Answer: 2.07

Question: Which “recombinant barcode read abundance (log10)” value does the source give for “ATCGGCCCTTGGGTTCTAACCTGTTGCTG (site GTGGGCCCTCA)” here?
Answer: 0.0497

Question: With “ATCTAAACTTGGGTTCTAACCTGTTGCCT (site ATCTAAACTAG)” as the sequence, how does the “recombinant barcode read abundance (log10)” value read?
Answer: 0.842

Question: With “ATCTAAACTTGGGTTCTAACCTGTTGCCT (site CGAGTCCCTCT)” as the sequence, how does the “recombinant barcode read abundance (log10)” value read?
Answer: 0.105

Question: For “ATCTACTCTTGGGTTCTAACCTGTTGCCT (site ATATACTCTCG)”, which “recombinant barcode read abundance (log10)” value is on record?
Answer: 0.382

Question: For “ATCTACTCTTGGGTTCTAACCTGTTGCCT (site ATCTACTCTAG)”, which “recombinant barcode read abundance (log10)” value is on record?
Answer: 1.56

Question: Which “recombinant barcode read abundance (log10)” value does the source give for “ATCTATACTTGGGTTCTAACCTGTTGCCT (site ATCTATACTAG)” here?
Answer: 0.821

Question: Which “recombinant barcode read abundance (log10)” value does the source give for “ATCTATACTTGGGTTCTAACCTGTTGCCT (site GGACGAGCTCA)” here?
Answer: 0.0107

Question: With “ATCTATCCTTGGGTTCTAACCTGTTGCAT (site ACCTAACCTAT)” as the sequence, how does the “recombinant barcode read abundance (log10)” value read?
Answer: 0.179

Question: With “ATCTATCCTTGGGTTCTAACCTGTTGCAT (site ATCTATCCTAT)” as the sequence, how does the “recombinant barcode read abundance (log10)” value read?
Answer: 0.198

Question: Which “recombinant barcode read abundance (log10)” value does the source give for “ATCTATTCTTGGGTTCTAACCTGTTGCCT (site ATCGATGCTAG)” here?
Answer: 0.198

Question: Which “recombinant barcode read abundance (log10)” value does the source give for “ATCTATTCTTGGGTTCTAACCTGTTGCCT (site ATCTATTCTAG)” here?
Answer: 0.111

Question: With “ATGAACACTTGGGTTCTAACCTGTTGCTG (site ATGAACACTCA)” as the sequence, how does the “recombinant barcode read abundance (log10)” value read?
Answer: 1.95

Question: For “ATGAACACTTGGGTTCTAACCTGTTGCTG (site TAATGGCCTTC)”, which “recombinant barcode read abundance (log10)” value is on record?
Answer: 0.0343

Question: Which “recombinant barcode read abundance (log10)” value does the source give for “ATGAGAGCTTGGGTTCTAACCTGTTGCCT (site ATAAGACCTAG)” here?
Answer: 0.324

Question: For “ATGAGAGCTTGGGTTCTAACCTGTTGCCT (site ATGAGAGCTAG)”, which “recombinant barcode read abundance (log10)” value is on record?
Answer: 1.05

Question: Which “recombinant barcode read abundance (log10)” value does the source give for “ATGAGGACTTGGGTTCTAACCTGTTGCCT (site ATGAGGACTAG)” here?
Answer: 1.84

Question: For “ATGAGGACTTGGGTTCTAACCTGTTGCCT (site CTGAGGACTAG)”, which “recombinant barcode read abundance (log10)” value is on record?
Answer: 0.362

Question: For “ATGAGGACTTGGGTTCTAACCTGTTGCCT (site GTGAGGACTAG)”, which “recombinant barcode read abundance (log10)” value is on record?
Answer: 0.12

Question: With “ATGAGGACTTGGGTTCTAACCTGTTGCCT (site TTGAGGACTAG)” as the sequence, how does the “recombinant barcode read abundance (log10)” value read?
Answer: 0.246

Question: With “ATGAGGCCTTGGGTTCTAACCTGTTGCTA (site ATGAGGCCTTA)” as the sequence, how does the “recombinant barcode read abundance (log10)” value read?
Answer: 0.739

Question: Which “recombinant barcode read abundance (log10)” value does the source give for “ATGAGGCCTTGGGTTCTAACCTGTTGCTA (site TCAGAAGCTCG)” here?
Answer: 0.159

Question: For “ATGATACCTTGGGTTCTAACCTGTTGCAT (site ATGATACCTAT)”, which “recombinant barcode read abundance (log10)” value is on record?
Answer: 1.71

Question: For “ATGATACCTTGGGTTCTAACCTGTTGCAT (site CCTGGGACTTA)”, which “recombinant barcode read abundance (log10)” value is on record?
Answer: 0.243

Question: For “ATGATATCTTGGGTTCTAACCTGTTGCCT (site AAGATATCTAG)”, which “recombinant barcode read abundance (log10)” value is on record?
Answer: 0.0255

Question: For “ATGATATCTTGGGTTCTAACCTGTTGCCT (site ACGATATCTAG)”, which “recombinant barcode read abundance (log10)” value is on record?
Answer: 0.43

Question: Which “recombinant barcode read abundance (log10)” value does the source give for “ATGATATCTTGGGTTCTAACCTGTTGCCT (site AGGATATCTAG)” here?
Answer: 0.181

Question: Which “recombinant barcode read abundance (log10)” value does the source give for “ATGATATCTTGGGTTCTAACCTGTTGCCT (site ATGATATCTAG)” here?
Answer: 1.5

Question: Which “recombinant barcode read abundance (log10)” value does the source give for “ATGCAATCTTGGGTTCTAACCTGTTGCCT (site ATGCAAACTAG)” here?
Answer: 0.104

Question: With “ATGCAATCTTGGGTTCTAACCTGTTGCCT (site ATGCAACCTAG)” as the sequence, how does the “recombinant barcode read abundance (log10)” value read?
Answer: 0.197

Question: For “ATGCAATCTTGGGTTCTAACCTGTTGCCT (site ATGCAAGCTAG)”, which “recombinant barcode read abundance (log10)” value is on record?
Answer: 0.236

Question: Which “recombinant barcode read abundance (log10)” value does the source give for “ATGCAATCTTGGGTTCTAACCTGTTGCCT (site ATGCAATCTAG)” here?
Answer: 1.09

Question: For “ATGCGAGCTTGGGTTCTAACCTGTTGCGG (site ATGCGAGCTCA)”, which “recombinant barcode read abundance (log10)” value is on record?
Answer: 0.873

Question: Which “recombinant barcode read abundance (log10)” value does the source give for “ATGCGAGCTTGGGTTCTAACCTGTTGCGG (site ATGCGAGCTCC)” here?
Answer: 1.92

Question: Which “recombinant barcode read abundance (log10)” value does the source give for “ATGCGAGCTTGGGTTCTAACCTGTTGCGG (site ATGCGAGCTCG)” here?
Answer: 0.194

Question: For “ATGCGAGCTTGGGTTCTAACCTGTTGCGG (site ATGCGAGCTCT)”, which “recombinant barcode read abundance (log10)” value is on record?
Answer: 1.37

Question: With “ATGCGAGCTTGGGTTCTAACCTGTTGCTG (site ATGCGAGCTCA)” as the sequence, how does the “recombinant barcode read abundance (log10)” value read?
Answer: 1.19

Question: For “ATGCGAGCTTGGGTTCTAACCTGTTGCTG (site ATGCGAGCTCC)”, which “recombinant barcode read abundance (log10)” value is on record?
Answer: 0.687

Question: Which “recombinant barcode read abundance (log10)” value does the source give for “ATGCGAGCTTGGGTTCTAACCTGTTGCTG (site ATGCGAGCTCG)” here?
Answer: 0.533

Question: Which “recombinant barcode read abundance (log10)” value does the source give for “ATGCGAGCTTGGGTTCTAACCTGTTGCTG (site ATGCGAGCTCT)” here?
Answer: 0.76

Question: With “ATGCGGTCTTGGGTTCTAACCTGTTGCCT (site ATGCGGTCTAG)” as the sequence, how does the “recombinant barcode read abundance (log10)” value read?
Answer: 2.02

Question: Which “recombinant barcode read abundance (log10)” value does the source give for “ATGCGGTCTTGGGTTCTAACCTGTTGCCT (site CTGCGGTCTAT)” here?
Answer: 0.112

Question: Which “recombinant barcode read abundance (log10)” value does the source give for “ATGCTAACTTGGGTTCTAACCTGTTGCCT (site ATGCTAACTAG)” here?
Answer: 1.62

Question: With “ATGCTAACTTGGGTTCTAACCTGTTGCCT (site GTGCTAACTTG)” as the sequence, how does the “recombinant barcode read abundance (log10)” value read?
Answer: 0.471

Question: For “ATGCTATCTTGGGTTCTAACCTGTTGCAG (site ATGCTATCTCT)”, which “recombinant barcode read abundance (log10)” value is on record?
Answer: 0.678

Question: With “ATGCTATCTTGGGTTCTAACCTGTTGCAG (site CACGGTCCTTG)” as the sequence, how does the “recombinant barcode read abundance (log10)” value read?
Answer: 0.276

Question: Which “recombinant barcode read abundance (log10)” value does the source give for “ATGCTGTCTTGGGTTCTAACCTGTTGCTA (site ATGCTGTCTTA)” here?
Answer: 1.52

Question: With “ATGCTGTCTTGGGTTCTAACCTGTTGCTA (site GACTACCCTAG)” as the sequence, how does the “recombinant barcode read abundance (log10)” value read?
Answer: 0.273

Question: Which “recombinant barcode read abundance (log10)” value does the source give for “ATGGCACCTTGGGTTCTAACCTGTTGCCT (site AGGGCACCTTG)” here?
Answer: 0.035

Question: With “ATGGCACCTTGGGTTCTAACCTGTTGCCT (site ATGGCACCTAG)” as the sequence, how does the “recombinant barcode read abundance (log10)” value read?
Answer: 1.04

Question: With “ATGGCCTCTTGGGTTCTAACCTGTTGCTA (site ATGGCCTCTTA)” as the sequence, how does the “recombinant barcode read abundance (log10)” value read?
Answer: 2.5

Question: Which “recombinant barcode read abundance (log10)” value does the source give for “ATGGCCTCTTGGGTTCTAACCTGTTGCTA (site GCTTAAACTAG)” here?
Answer: 0.0975
